Assay [1] concerns the target T1, Cytochrome P450 11B1, mitochondrial (Homo sapiens, UniProt P15538).
T1 sequence (P15538 whole entry): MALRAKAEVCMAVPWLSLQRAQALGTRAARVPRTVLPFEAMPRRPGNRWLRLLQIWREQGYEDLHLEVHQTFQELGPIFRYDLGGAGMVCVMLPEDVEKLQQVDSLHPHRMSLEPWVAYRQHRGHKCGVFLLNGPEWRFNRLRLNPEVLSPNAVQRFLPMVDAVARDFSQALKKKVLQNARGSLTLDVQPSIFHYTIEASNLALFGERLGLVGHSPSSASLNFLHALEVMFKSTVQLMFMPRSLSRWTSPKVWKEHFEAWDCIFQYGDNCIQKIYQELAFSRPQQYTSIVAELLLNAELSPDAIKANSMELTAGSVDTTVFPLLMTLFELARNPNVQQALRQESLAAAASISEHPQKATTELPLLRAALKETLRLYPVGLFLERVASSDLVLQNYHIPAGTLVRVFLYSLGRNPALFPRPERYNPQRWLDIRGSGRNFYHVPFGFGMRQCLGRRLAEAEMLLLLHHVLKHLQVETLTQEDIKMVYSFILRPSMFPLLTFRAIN
The assay is described as follows: (§1) Cellular Enzyme Assay: G-402 cells expressing CYP11 constructs were established as described above and maintained in McCoy's 5a Medium Modified, ATCC Catalog No. 30-2007 containing 10% FCS and 400 ug/ml G418 (Geneticin) at 37° C. under an atmosphere of 5% CO2/95% air. Cellular enzyme assays were performed in DMEM/F12 medium containing 2.5% charcoal treated FCS and appropriate concentration of substrate (0.3-10 uM 11-Deoxycorticosterone, 11-Deoxycortisol or Corticosterone). For assaying enzymatic activity, cells were plated onto 96 well plates and incubated for 16 h. An aliquot of the supernatant is then transferred and analyzed for the concentration of the expected product (Aldosterone for CYP11B2; Cortisol for CYP11B1). The concentrations of these steroids can be determined using HTRF assays from CisBio analyzing either Aldosterone or Cortisol.

For assay [2], the target named is T2, Cytochrome P450 11B2, mitochondrial (Homo sapiens, UniProt P19099).
T2 sequence (P19099 whole entry): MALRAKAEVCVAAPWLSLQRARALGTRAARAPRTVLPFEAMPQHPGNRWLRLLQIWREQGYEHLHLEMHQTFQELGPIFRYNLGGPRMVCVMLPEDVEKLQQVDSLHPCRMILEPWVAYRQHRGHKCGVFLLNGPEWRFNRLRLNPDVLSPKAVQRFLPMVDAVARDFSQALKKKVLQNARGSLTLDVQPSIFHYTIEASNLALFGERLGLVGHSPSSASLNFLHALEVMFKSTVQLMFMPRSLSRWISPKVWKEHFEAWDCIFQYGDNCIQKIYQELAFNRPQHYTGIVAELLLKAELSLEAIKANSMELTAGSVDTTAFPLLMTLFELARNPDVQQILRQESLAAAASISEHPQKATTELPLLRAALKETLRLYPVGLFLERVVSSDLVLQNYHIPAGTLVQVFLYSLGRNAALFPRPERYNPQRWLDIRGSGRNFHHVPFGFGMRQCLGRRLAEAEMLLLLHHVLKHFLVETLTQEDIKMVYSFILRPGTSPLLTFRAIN
Described as §1.

Several values for one entry are separate records, joined by “and”; a condition that tells them apart may be missing. Equal entries are not always repeated.

The term EC50 denotes the concentration needed to bring the measured effect to its halfway point. Consider `CCS(=O)(=O)N1CCC(N(C)c2cncc(N3C(=O)c4ccc(Cl)cc4C3(C)C)c2)C1` (single isomer, unassigned), for which the EC50 in assay [1] was 188 nM and 124 nM; in assay [2], 1 nM and 0.6 nM.

For the origin of these results see ChEMBL document CHEMBL5725304, “3,4-dihydro-2H-isoquinoline-1-one and 2,3-dihydro-isoindol-1-one compounds” (2017).
